In general, IC50 refers to the concentration that gives 50% inhibition.

For the test, the system named is mutant Huntington (HTT) protein. The test is described as follows: HTT Mutant HTRF iPSC assay (mHTT protein lowering). Type of test: cell-based. The conditions noted are these: human iPSC derived from a HTT patient with a poly-Q49 mutation. A general note: TR-FRET usually uses a lanthanide donor and a delayed reading to cut background.
In turn, `Cc1cn2nc(-c3cc(F)c4[nH]c(C5CC6CC(N)C6C5)nc4c3)cc(C)c2n1` (stereo not drawn) [Compound 423, 3-(5-(2,8-dimethylimidazo[1,2-b]pyridazin-6-yl)-7-fluoro-1H-benzo[d]imidazol-2-yl)bicyclo[3.2.0]heptan-6-amine] returned an IC50 of 100 to 1000 nM. As for `Cc1cn2nc(-c3cc(F)c4nc(NC(=O)CC5CCCCN5C)nn4c3)cc(C)c2n1` (racemic) [Compound 328, N-(6-(2,8-dimethylimidazo[1,2-b]pyridazin-6-yl)-8-fluoro-[1,2,4]triazolo[1,5-a]pyridin-2-yl)-2-(1-methylpiperidin-2-yl)acetamide], the IC50 was in the range of 100 to 1000 nM. Under `Cc1nc2c(F)cc(-c3cc(F)c4nc(C5CCNCC5)cn4c3)cn2n1` [Compound 88, 8-fluoro-6-(8-fluoro-2-(piperidin-4-yl)imidazo[1,2-a]pyridin-6-yl)-2-methyl-[1,2,4]triazolo[1,5-a]pyridine] stands 100 to 1000 nM. As to `Cn1cc2cc(-c3cc(F)c4nc(C56CNC(C5)C6)cn4c3)cc(F)c2n1` [Compound 67], the IC50 is 1000 to 9000 nM.

Compound `Cc1cn2nc(-c3cc(F)c4nn(C5CCNCC5)nc4c3)cc2c(C)n1` [Compound 388, 6-(4,6-dimethylpyrazolo[1,5-a]pyrazin-2-yl)-4-fluoro-2-(piperidin-4-yl)-2H-benzo[d][1,2,3]triazole] had an IC50 of 100 to 1000 nM. The compound `CNC12CCC(c3cn4cc(-c5cc(F)c6nn(C)cc6c5)cc(F)c4n3)(C1)C2` [Compound 77, 4-(8-fluoro-6-(7-fluoro-2-methyl-2H-indazol-5-yl)imidazo[1,2-a]pyridin-2-yl)-N-methylbicyclo[2.1.1] hexan-1-amine] showed an IC50 of 1000 to 9000 nM. `Cc1cn2nc(-c3cc(F)c4nc(NC(=O)C5CCNC56CC6)nn4c3)cc(C)c2n1` (stereo not drawn) [Compound 323, N-(6-(2,8-dimethylimidazo[1,2-b]pyridazin-6-yl)-8-fluoro-[1,2,4]triazolo[1,5-a]pyridin-2-yl)-4-azaspiro[2.4]heptane-7-carboxamide] displayed an IC50 of 100 to 1000 nM. In turn, `Cc1cn2nc(-c3cc(F)c4nc(NC5CCN6CCCC6C5)oc4c3)cc(C)c2n1` (stereo not drawn) [Compound 482, 6-(2,8-dimethylimidazo[1,2-b]pyridazin-6-yl)-4-fluoro-N-(octahydroindolizin-7-yl)benzo[d]oxazol-2-amine] returned an IC50 below 100 nM.

As for `CCN1CCC(c2cn3cc(-c4ccc5nc(C)cn5n4)cc(F)c3n2)CC1` [Compound 3, 6-(2-(1-ethylpiperidin-4-yl)-8-fluoroimidazo[1,2-a]pyridin-6-yl)-2-methylimidazo[1,2-b]pyridazine], the IC50 is below 100 nM. In the case of `Cc1cn2nc(-c3ccc4nc(C5CCNCC5)oc4c3)cc(C)c2n1` [Compound 550, 6-(2,8-dimethylimidazo[1,2-b]pyridazin-6-yl)-2-(4-piperidyl)-1,3-benzoxazole], the IC50 was in the range of 100 to 1000 nM. Then `Cc1cn2nc(-c3cc(F)c4nc(NC(=O)C5CCCN(C)C5)cn4c3)cc(C)c2n1` (single isomer, unassigned) [Compound 278], with below 100 nM.

On to `CCc1nc(C)cn2cc(-c3cc(F)c4nc(C5CCNCC5)nn4c3)cc12` [Compound 152], for which the IC50 was below 100 nM. In turn, `Cc1nc2c(C)cc(-c3cc(F)c4nn(C5CCNCC5)nc4c3)nn2n1` [Compound 390, 6-(7-fluoro-2-(piperidin-4-yl)-2H-benzo[d][1,2,3]triazol-5-yl)-2,8-dimethyl-[1,2,4]triazolo[1,5-b]pyridazine] displayed an IC50 of 100 to 1000 nM.

In the case of `Cc1cn2nc(-c3cc(F)c4nc([C@H]5C[C@H](CN(C)C)C5)cn4c3)cc(C)c2n1` [Compound 181, 1-((1r,3r)-3-(6-(2,8-dimethylimidazo[1,2-b]pyridazin-6-yl)-8-fluoroimidazo[1,2-a]pyridin-2-yl)cyclobutyl)-N,N-dimethylmethanamine], the IC50 is below 100 nM. Then `CCN1CCC(n2nc3cc(-c4cc(C(F)F)c5nc(C)cn5n4)cc(F)c3n2)CC1` [Compound 377, 6-(8-(difluoromethyl)-2-methylimidazo[1,2-b]pyridazin-6-yl)-2-(1-ethylpiperidin-4-yl)-4-fluoro-2H-benzo[d][1,2,3]triazole], with 100 to 1000 nM.

In turn, `COCCN1CCC(c2cn3cc(-c4cc(C)c5nc(C)cn5n4)cc(F)c3n2)CC1` [Compound 46, 6-[8-fluoro-2-[1-(2-methoxyethyl)-4-piperidyl]imidazo[1,2-a]pyridin-6-yl]-2,8-dimethyl-imidazo[1,2-b]pyridazine] registered an IC50 below 100 nM.

Consider `Cc1cn2nc(-c3cc(F)c4nc(CC5CNC5)cn4c3)cc(C)c2n1` [Compound 13, 6-(2-(azetidin-3-ylmethyl)-8-fluoroimidazo[1,2-a]pyridin-6-yl)-2,8-dimethylimidazo[1,2-b]pyridazine], for which the IC50 was in the range of 100 to 1000 nM. Under `Cc1cn2nc(-c3cc(F)c4nc(C56CC(N)(C5)C6)cn4c3)cc(C)c2n1` [Compound 91] stands below 100 nM; under `Cc1cn2nc(-c3cc(F)c4nc([C@H]5[C@@H]6CN(C7CCC7)C[C@@H]65)cn4c3)cc(C)c2n1` [Compound 211, 6-(2-((1R,5S,6r)-3-cyclobutyl-3-azabicyclo[3.1.0]hexan-6-yl)-8-fluoroimidazo[1,2-a]pyridin-6-yl)-2,8-dimethylimidazo[1,2-b]pyridazine], below 100 nM. Then `CN1CCC(c2cn3cc(-c4cc(F)c5nn(C)cc5c4)cc(F)c3n2)CC1` [Compound 26, 7-fluoro-5-(8-fluoro-2-(1-methylpiperidin-4-yl)imidazo[1,2-a]pyridin-6-yl)-2-methyl-2H-indazole], with 100 to 1000 nM; and `COc1cc(-c2cc(C)c3nc(C)cn3n2)cn2cc([C@H]3[C@@H]4CN(C)C[C@@H]43)nc12` [Compound 539, 6-[8-methoxy-2-[(1S,5R)-3-methyl-3-azabicyclo[3.1.0]hexan-6-yl]imidazo[1,2-a]pyridin-6-yl]-2,8-dimethyl-imidazo[1,2-b]pyridazine], with below 100 nM; and `Cc1cc(-c2cc(F)c3nc(C4CCNCC4)oc3c2)cc2cn(C)nc12` [Compound 157, 6-(2,7-dimethyl-2H-indazol-5-yl)-4-fluoro-2-(piperidin-4-yl)benzo[d]oxazole], with 100 to 1000 nM. Under `Cc1cn2nc(-c3cc(F)c4nc(NC(=O)C5CCC(N(C)C)C5)cn4c3)cc(C)c2n1` (racemic) [Compound 128, rac-3-(dimethylamino)-N-(6-(2,8-dimethylimidazo[1,2-b]pyridazin-6-yl)-8-fluoroimidazo[1,2-a]pyridin-2-yl)cyclopentane-1-carboxamide] stands below 100 nM. The compound `Cc1cn2nc(-c3cc(F)c4nc(N5CCC56CCN(C)CC6)oc4c3)cc(C)c2n1` [Compound 493, 6-(2,8-dimethylimidazo[1,2-b]pyridazin-6-yl)-4-fluoro-2-(7-methyl-1,7-diazaspiro[3.5]nonan-1-yl)benzo[d]oxazole] showed an IC50 of 100 to 1000 nM. Turning to `Cc1cn2nc(-c3cc(F)c4nn(CC5CNC5)nc4c3)cc(C)c2n1` [Compound 383, 2-(azetidin-3-ylmethyl)-6-(2,8-dimethylimidazo[1,2-b]pyridazin-6-yl)-4-fluoro-2H-benzo[d][1,2,3]triazole], the IC50 fell in the range of 100 to 1000 nM. Then `COCCCN1CCC(c2cn3cc(-c4cc(C)c5nc(C)cn5n4)cc(F)c3n2)CC1` [Compound 45, 6-(8-fluoro-2-(1-(3-methoxypropyl)piperidin-4-yl)imidazo[1,2-a]pyridin-6-yl)-2,8-dimethylimidazo[1,2-b]pyridazine], with below 100 nM. Regarding `Cc1cn2nc(-c3cc(F)c4nc(N5CC6CN(C)CC6C5)oc4c3)cc(C)c2n1` (stereo not drawn) [Compound 466, 6-(2,8-dimethylimidazo[1,2-b]pyridazin-6-yl)-4-fluoro-2-(5-methylhexahydropyrrolo [3,4-c]pyrrol-2(1H)-yl)benzo[d]oxazole], the concentration for half-maximal inhibition (IC50) is 100 to 1000 nM. With `Fc1cc(-c2ccc3ncsc3c2)cn2cc(C3CCNCC3)nc12` [Compound 44, 6-(8-fluoro-2-(piperidin-4-yl)imidazo[1,2-a]pyridin-6-yl)benzo[d]thiazole], the IC50 was 1000 to 9000 nM. Then `Cc1cc2nc(-c3cc(F)c4nc(C5CCNCC5)cn4c3)ncc2s1` [Compound 201, 2-(8-fluoro-2-(piperidin-4-yl)imidazo[1,2-a]pyridin-6-yl)-6-methylthieno[3,2-d]pyrimidine], with 100 to 1000 nM.

As to `CN[C@@H]1CCC[C@H](c2cn3cc(-c4cc(F)c5nn(C)cc5c4)cc(F)c3n2)C1` (stereo in doubt) [Compound 162, rel-(1R,3S)-3-(8-fluoro-6-(7-fluoro-2-methyl-2H-indazol-5-yl)imidazo[1,2-a]pyridin-2-yl)-N-methylcyclohexan-1-amine], the IC50 lay within 100 to 1000 nM. Under `Cc1cn2nc(-c3cc(F)c4nc(NC(=O)C5CCCNC5)nn4c3)cc(C)c2n1` (single isomer, unassigned) [Compound 315] stands 100 to 1000 nM; under `CCN1CC[C@H](N(C)c2nc3c(F)cc(-c4cc(C)c5nc(C)cn5n4)cc3o2)C[C@@H]1C` (stereo in doubt) [Compound 486, rel-6-(2,8-dimethylimidazo[1,2-b]pyridazin-6-yl)-N-((2R,4R)-1-ethyl-2-methylpiperidin-4-yl)-4-fluoro-N-methylbenzo[d]oxazol-2-amine], below 100 nM; under `Cc1cn2nc(-c3cc(F)c4nn(C5CCN(C)CC5)cc4c3)cc2c(C)n1` [Compound 371, 2-(7-fluoro-2-(1-methylpiperidin-4-yl)-2H-indazol-5-yl)-4,6-dimethylpyrazolo[1,5-a]pyrazine], 100 to 1000 nM.

Take `Cc1cn2nc(-c3cc(F)c4nc(C5CCN(C)CC5)cn4c3)cc2c(C)n1` [Compound 220, 2-(8-fluoro-2-(1-methylpiperidin-4-yl)imidazo[1,2-a]pyridin-6-yl)-4,6-dimethylpyrazolo[1,5-a]pyrazine]: the IC50 was below 100 nM. Then `Cc1cn2nc(-c3cc(F)c4nc(NC(=O)C5CNC5(C)C)cn4c3)cc(C)c2n1` (racemic) [Compound 260, N-(6-(2,8-dimethylimidazo[1,2-b]pyridazin-6-yl)-8-fluoroimidazo[1,2-a]pyridin-2-yl)-2,2-dimethylazetidine-3-carboxamide], with 100 to 1000 nM. Under `CCN1CCC(c2cn3cc(-c4cc(C)c5nc(C)cn5c4)cc(F)c3n2)CC1` [Compound 27, 2-(1-ethylpiperidin-4-yl)-8-fluoro-2′,8′-dimethyl-6,6′-biimidazo[1,2-a]pyridine] stands 100 to 1000 nM.

The record behind these values is patent US20250353841A1 (BIOGEN MA INC., priority 2022, published 2025).
